From US10385024B2, “Compounds and methods for inhibiting NHE-mediated antiport in the treatment of disorders associated with fluid retention or salt overload and gastrointestinal tract disorders” (Ardelyx, Inc., priority 2012, dated 2019) come the findings set out here.

One test concerns the target T1, human NHE-3 (Homo sapiens, UniProt P48764).
T1 construct: expressed in transfected cells; host or cells: Opossum kidney (OK) cells (ATCC), transfected by electroporation
T1 sequence (P48764 26-834): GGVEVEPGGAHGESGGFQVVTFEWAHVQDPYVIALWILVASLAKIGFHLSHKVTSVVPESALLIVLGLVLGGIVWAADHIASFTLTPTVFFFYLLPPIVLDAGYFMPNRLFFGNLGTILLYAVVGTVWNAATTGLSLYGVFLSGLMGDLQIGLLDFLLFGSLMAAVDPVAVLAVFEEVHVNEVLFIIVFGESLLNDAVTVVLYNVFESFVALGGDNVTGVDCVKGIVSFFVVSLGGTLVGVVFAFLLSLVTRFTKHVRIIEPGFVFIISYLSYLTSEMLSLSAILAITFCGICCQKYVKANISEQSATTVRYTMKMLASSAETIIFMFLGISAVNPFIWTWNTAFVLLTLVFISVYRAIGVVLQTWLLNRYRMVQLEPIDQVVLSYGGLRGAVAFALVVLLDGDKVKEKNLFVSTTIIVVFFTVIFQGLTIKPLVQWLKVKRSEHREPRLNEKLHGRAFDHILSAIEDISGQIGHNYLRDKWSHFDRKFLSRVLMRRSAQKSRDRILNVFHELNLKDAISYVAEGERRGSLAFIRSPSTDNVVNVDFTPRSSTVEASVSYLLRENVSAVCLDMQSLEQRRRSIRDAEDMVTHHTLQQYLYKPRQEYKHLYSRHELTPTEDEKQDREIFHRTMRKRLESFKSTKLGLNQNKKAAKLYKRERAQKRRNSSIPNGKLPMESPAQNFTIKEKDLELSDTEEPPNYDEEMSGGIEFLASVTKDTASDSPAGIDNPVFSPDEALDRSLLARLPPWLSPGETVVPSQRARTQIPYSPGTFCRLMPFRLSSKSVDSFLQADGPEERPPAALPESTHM
Description: Cell-based assay of NHE-3 activity (human NHE3 inhibition assay). The following applies: OK cells with human NHE-3 gene, BCECF pH dye, 0-30 μM test compound; for IC50: read-out: Human NHE3 pIC50 (converted). The method, then:
(§1) Rat or human NHE-3-mediated Na^+-dependent H^+ antiport was measured using a modification of the pH sensitive dye method originally reported by Paradiso (Proc. Natl. Acad. Sci. USA. (1984) 81(23): 7436-7440). Opossum kidney (OK) cells were obtained from the ATCC and propagated per their instructions. The rat NHE-3 gene (GenBank M85300) or the human NHE-3 gene (GenBank NM_004174.1) was introduced into OK cells via electroporation, and cells were seeded into 96 well plates and grown overnight. Medium was aspirated from the wells, cells were washed twice with NaCl-HEPES buffer (100 mM NaCl, 50 mM HEPES, 10 mM glucose, 5 mM KCl, 2 mM CaCl2, 1 mM MgCl2, pH 7.4), then incubated for 30 min at room temperature with NH4Cl-HEPES buffer (20 mM NH4Cl, 80 mM NaCl, 50 mM HEPES, 5 mM KCl, 2 mM CaCl2, 1 mM MgCl2, pH 7.4) containing 5 μM bis(acetoxymethyl) 3,3′-(3′,6′-bis(acetoxymethoxy)-5-((acetoxymethoxy)carbonyl)-3-oxo-3H-spiro[isobenzofuran-1,9′-xanthene]-2′,7′-diyl)dipropanoate (BCECF-AM). Cells were washed twice with Ammonium free, Na^+-free HEPES (100 mM choline, 50 mM HEPES, 10 mM glucose, 5 mM KCl, 2 mM CaCl2, 1 mM MgCl2, pH 7.4) and incubated in the same buffer for 10 minutes at room temperature to lower intracellular pH. […] Initial rates were plotted as the average 2 or more replicates, and pIC50 values were estimated using GraphPad Prism.

Test [1] deals with T2, Rat NHE-3 (Rattus norvegicus, UniProt P26433).
T2 construct: expressed in transfected cells; host or cells: Opossum kidney (OK) cells (ATCC), transfected by electroporation
T2 sequence (P26433 29-831): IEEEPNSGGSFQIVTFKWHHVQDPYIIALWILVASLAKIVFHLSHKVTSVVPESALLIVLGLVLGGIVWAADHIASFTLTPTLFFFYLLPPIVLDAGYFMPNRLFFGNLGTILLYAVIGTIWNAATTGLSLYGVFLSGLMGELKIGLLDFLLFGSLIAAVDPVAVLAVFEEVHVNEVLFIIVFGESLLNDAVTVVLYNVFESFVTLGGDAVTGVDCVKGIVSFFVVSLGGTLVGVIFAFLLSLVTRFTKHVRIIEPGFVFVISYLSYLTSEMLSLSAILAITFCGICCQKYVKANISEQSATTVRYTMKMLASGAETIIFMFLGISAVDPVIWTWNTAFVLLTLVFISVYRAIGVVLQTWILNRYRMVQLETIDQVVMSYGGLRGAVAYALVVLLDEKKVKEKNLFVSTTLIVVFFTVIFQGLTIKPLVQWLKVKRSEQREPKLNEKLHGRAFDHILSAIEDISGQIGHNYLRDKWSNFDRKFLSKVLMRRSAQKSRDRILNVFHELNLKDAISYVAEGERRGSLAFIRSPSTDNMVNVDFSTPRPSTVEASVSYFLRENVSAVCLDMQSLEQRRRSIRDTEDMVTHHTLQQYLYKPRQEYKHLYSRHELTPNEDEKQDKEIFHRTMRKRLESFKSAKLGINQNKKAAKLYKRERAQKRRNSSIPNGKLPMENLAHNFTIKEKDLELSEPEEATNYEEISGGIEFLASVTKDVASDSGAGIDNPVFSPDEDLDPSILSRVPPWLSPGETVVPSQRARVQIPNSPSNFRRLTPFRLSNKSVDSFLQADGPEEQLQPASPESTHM
Description: Cell-based assay of NHE-3 activity (rat NHE-3 prompt inhibition). The following applies: OK cells with rat NHE-3 gene, compound present during pH recovery; for IC50: read-out: Rat NHE3 pIC50 (prompt) (converted). On the procedure: as §1

In test [2] the target is T2, Rat NHE-3. The test is described as follows: Cell-based assay of NHE-3 activity (persistent inhibition, after washout). The following applies: OK cells with rat NHE-3 gene, 60 min incubation, recovery initiated 40 min after compound washout; for IC50: read-out: Rat NHE3 pIC50 (persistent) (converted). The method, then: The ability of compounds to inhibit Rat NHE-3-mediated Na^+-dependent H^+ antiport after application and washout was measured using a modification of the pH sensitive dye method described above in Example 74. Opossum kidney (OK) cells were obtained from the ATCC and propagated per their instructions. The rat NHE-3 gene was introduced into OK cells via electroporation, and cells were seeded into 96 well plates and grown overnight. Medium was aspirated from the wells, cells were washed twice with NaCl-HEPES buffer (100 mM NaCl, 50 mM HEPES, 10 mM glucose, 5 mM KCl, 2 mM CaCl2, 1 mM MgCl2, pH 7.4), then overlayed with NaCl-HEPES buffer containing 0-30 μM test compound. After a 60 min incubation, the test drug containing buffer was aspirated from the cells, cells were washed twice with NaCl-HEPES buffer without drug, then incubated for 30 min at room temperature with NH4Cl-HEPES buffer (20 mM NH4Cl, 80 mM NaCl, 50 mM HEPES, 5 mM KCl, 2 mM CaCl2, 1 mM MgCl2, pH 7.4) containing 5 μM BCECF-AM. Cells were washed twice with ammonium free, Na^+-free HEPES (100 mM choline, 50 mM HEPES, 10 mM glucose, 5 mM KCl, 2 mM CaCl2, 1 mM MgCl2, pH 7.4) and incubated in the same buffer for 10 minutes at room temperature to lower intracellular pH. […] Initial rates were plotted as the average 2 or more replicates, and pIC50 values were estimated using GraphPad Prism.

For `CCCCCCCCCCC(=O)NC(CCC(=O)NCCOCCOCCOCCNS(=O)(=O)c1cccc([C@@H]2CN(C)Cc3c(Cl)cc(Cl)cc32)c1)(CCC(=O)NCCOCCOCCOCCNS(=O)(=O)c1cccc([C@@H]2CN(C)Cc3c(Cl)cc(Cl)cc32)c1)CCC(=O)NCCOCCOCCOCCNS(=O)(=O)c1cccc([C@@H]2CN(C)Cc3c(Cl)cc(Cl)cc32)c1` [Example 15, 4-(1-(3-((S)-6,8-dichloro-2-methyl-1,2,3,4-tetrahydroisoquinolin-4-yl)phenylsulfonamido)-13-oxo-3,6,9-trioxa-12-azapentadecan-15-yl)-N^1,N^7-bis(2-(2-(2-(2-(3-((S)-6,8-dichloro-2-methyl-1,2,3,4-tetrahydroisoquinolin-4-yl)phenylsulfonamido)ethoxy)ethoxy)ethoxy)ethyl)-4-undecanamidoheptanediamide], the IC50 on human NHE-3 is 0.1 to 10 µM; at Rat NHE-3 [1] it was more than 10 µM; on Rat NHE-3 [2] it was 0.1 to 10 µM.

As for `CCCCCCCCOc1ccc(CNC(CCC(=O)NCCOCCOCCOCCNS(=O)(=O)c2cccc([C@@H]3CN(C)Cc4c(Cl)cc(Cl)cc43)c2)(CCC(=O)NCCOCCOCCOCCNS(=O)(=O)c2cccc([C@@H]3CN(C)Cc4c(Cl)cc(Cl)cc43)c2)CCC(=O)NCCOCCOCCOCCNS(=O)(=O)c2cccc([C@@H]3CN(C)Cc4c(Cl)cc(Cl)cc43)c2)cc1` [Example 20, 4-(1-(3-((S)-6,8-dichloro-2-methyl-1,2,3,4-tetrahydroisoquinolin-4-yl)phenylsulfonamido)-13-oxo-3,6,9-trioxa-12-azapentadecan-15-yl)-N^1,N^7-bis(2-(2-(2-(2-(3-((S)-6,8-dichloro-2-methyl-1,2,3,4-tetrahydroisoquinolin-4-yl)phenylsulfonamido)ethoxy)ethoxy)ethoxy)ethyl)-4-(4-(octyloxy)benzylamino)heptanediamide], the figures for the IC50 at human NHE-3, on Rat NHE-3 [1] and on Rat NHE-3 [2] were less than 0.1 µM, 0.1 to 10 µM and less than 0.1 µM, respectively.

In the case of `CN1Cc2c(Cl)cc(Cl)cc2[C@H](c2cccc(S(=O)(=O)NCCOCCOCCOCCNC(=O)CCC(CCC(=O)NCCOCCOCCOCCNS(=O)(=O)c3cccc([C@@H]4CN(C)Cc5c(Cl)cc(Cl)cc54)c3)(CCC(=O)NCCOCCOCCOCCNS(=O)(=O)c3cccc([C@@H]4CN(C)Cc5c(Cl)cc(Cl)cc54)c3)NC(=O)c3ccc(-c4ccc(Cl)cc4)cc3)c2)C1` [Example 16, 4-(4′-chlorobiphenyl-4-ylcarboxamido)-4-(1-(3-((S)-6,8-dichloro-2-methyl-1,2,3,4-tetrahydroisoquinolin-4-yl)phenylsulfonamido)-13-oxo-3,6,9-trioxa-12-azapentadecan-15-yl)-N^1,N^7-bis(2-(2-(2-(2-(3-((S)-6,8-dichloro-2-methyl-1,2,3,4-tetrahydroisoquinolin-4-yl)phenylsulfonamido)ethoxy)ethoxy)ethoxy)ethyl)heptanediamide], the IC50 is more than 10 µM at human NHE-3, 0.1 to 10 µM at Rat NHE-3 [1] and 0.1 to 10 µM on Rat NHE-3 [2].

With `CCCCCCCCOc1ccc(CNC(CCC(=O)NCCOCCOCCNS(=O)(=O)c2cccc([C@@H]3CN(C)Cc4c(Cl)cc(Cl)cc43)c2)(CCC(=O)NCCOCCOCCNS(=O)(=O)c2cccc([C@@H]3CN(C)Cc4c(Cl)cc(Cl)cc43)c2)CCC(=O)NCCOCCOCCNS(=O)(=O)c2cccc([C@@H]3CN(C)Cc4c(Cl)cc(Cl)cc43)c2)cc1` [Example 23], the “Human NHE3 pIC50” value on human NHE-3 is “C (C NHE3 pIC50 > 7)”. Further, the “Rat NHE3 pIC50 (prompt)” value at Rat NHE-3 [1] was “B (B NHE3 pIC50 5-7)”. Moreover, the “Rat NHE3 pIC50 (persistent)” value at Rat NHE-3 [2] was “B (B NHE3 pIC50 5-7)”.

As to `CN1Cc2c(Cl)cc(Cl)cc2[C@H](c2cccc(S(=O)(=O)NCCOCCOCCOCCNC(=O)CN(CCN(CC(=O)NCCOCCOCCOCCNS(=O)(=O)c3cccc([C@@H]4CN(C)Cc5c(Cl)cc(Cl)cc54)c3)CC(=O)NCCOCCOCCOCCNS(=O)(=O)c3cccc([C@@H]4CN(C)Cc5c(Cl)cc(Cl)cc54)c3)CCN(CC(=O)NCCOCCOCCOCCNS(=O)(=O)c3cccc([C@@H]4CN(C)Cc5c(Cl)cc(Cl)cc54)c3)CC(=O)NCCOCCOCCOCCNS(=O)(=O)c3cccc([C@@H]4CN(C)Cc5c(Cl)cc(Cl)cc54)c3)c2)C1` [Example 49], the “Human NHE3 pIC50” value at human NHE-3 is given as “B (B NHE3 pIC50 5-7)”. On Rat NHE-3 [1], the “Rat NHE3 pIC50 (prompt)” value is on record as “B (B NHE3 pIC50 5-7)”. On Rat NHE-3 [2], the “Rat NHE3 pIC50 (persistent)” value was “B (B NHE3 pIC50 5-7)”.

As to `CN1Cc2c(Cl)cc(Cl)cc2[C@H](c2cccc(S(=O)(=O)NCCOCCOCCNC(=O)CCC(CCC(=O)NCCOCCOCCNS(=O)(=O)c3cccc([C@@H]4CN(C)Cc5c(Cl)cc(Cl)cc54)c3)(CCC(=O)NCCOCCOCCNS(=O)(=O)c3cccc([C@@H]4CN(C)Cc5c(Cl)cc(Cl)cc54)c3)[N+](=O)[O-])c2)C1` [Example 1, N1,N7-bis(2-(2-(2-(3-((S)-6,8-dichloro-2-methyl-1,2,3,4-tetrahydroisoquinolin-4-yl)phenylsulfonamido)ethoxy)ethoxy)ethyl)-4-(3-(2-(2-(2-(3-((S)-6,8-dichloro-2-methyl-1,2,3,4-tetrahydroisoquinolin-4-yl)phenylsulfonamido)ethoxy)ethoxy)ethylamino)-3-oxopropyl)-4-nitroheptanediamide], the IC50 on human NHE-3 is 0.1 to 10 µM; on Rat NHE-3 [1] it was 0.1 to 10 µM; on Rat NHE-3 [2], less than 0.1 µM.
